According to publication PMC9926234, “Iterative computational design and crystallographic screening identifies potent inhibitors targeting the Nsp3 macrodomain of SARS-CoV-2” (Proceedings of the National Academy of Sciences of the …, 2023):

Each molecule was assayed against T1, SARS-CoV-2 NSP3 Mac1 (Severe acute respiratory syndrome coronavirus 2, UniProt P0DTD1). Conditions: DSF dose responsiveness, 1 µM nsp3 mac1; adj p given.
Format: binding
Design: contains a conserved macrodomain enzyme (Mac1)
Method in brief: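 Differential scanning fluorimetry using 5 µM Fluorescent Yellow dye in place of SYPRO Orange. Compounds run in triplicate at seven two-fold dilutions from 1,000 or 100 μM, with ΔTma taken against a DMSO control in the same plate region. Dose-response significance assessed by Spearman's coefficient between concentration and ΔTma.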

SMILES	Spearman est (compound concentration vs apparent Tm)
Nc1ncnc2c1ncn2Cc1cccc(C(F)(F)F)c1 [ZINC000110510893]	0.5
Nc1ncnc(N2CCC(Oc3ccncc3)C2)c1Cl (stereo not drawn) [ZINC000302059710]	−0.85
Nc1ncnc2c1ncn2Cc1ccc(Cl)cn1 [ZINC000559260078]	0.88
Cc1ccc([C@@H]2C[C@@H](C)CCN2C(=O)c2ncnc3[nH]ccc23)o1 [ZINC000611664196]	−0.75
Nc1ncnc2c1ncn2Cc1cc(-c2ccco2)on1 [ZINC000681764827]	0.38
O=C(c1ncnc2[nH]ccc12)N1CC=CC12CCCCC2 [ZINC000827900828]	−0.37

Same assay, conditions: maximal thermal upshift

SMILES	DSF max dTma
Cc1ccc([C@@H]2C[C@@H](C)CCN2C(=O)c2ncnc3[nH]ccc23)o1 [ZINC000611664196]	0.14 ˚C

Same assay, conditions: maximal thermal upshift vs DMSO control

SMILES	DSF max dTma [°C]
Nc1ncnc2c1ncn2Cc1cccc(C(F)(F)F)c1 [ZINC000110510893]	0.5
Nc1ncnc(N2CCC(Oc3ccncc3)C2)c1Cl (stereo not drawn) [ZINC000302059710]	0
Nc1ncnc2c1ncn2Cc1ccc(Cl)cn1 [ZINC000559260078]	0.98
Nc1ncnc2c1ncn2Cc1cc(-c2ccco2)on1 [ZINC000681764827]	0.63
O=C(c1ncnc2[nH]ccc12)N1CC=CC12CCCCC2 [ZINC000827900828]	0.93

The molecules below were run against T1, SARS-CoV-2 NSP3 Mac1. Conditions: PanDDA 1-BDC (background density correction) of the event; crystal soak 100 mM; PanDDA run dmso_34.
Format: binding

SMILES	1-BDC
Nc1ncnc2c1ncn2Cc1cccc(C(F)(F)F)c1 [ZINC000110510893]	0.35
Nc1ncnc2c1ncn2Cc1ccc(Cl)cn1 [ZINC000559260078]	0.15
Nc1ncnc2c1ncn2Cc1cc(-c2ccco2)on1 [ZINC000681764827]	0.16
O=C(c1ncnc2[nH]ccc12)N1CC=CC12CCCCC2 [ZINC000827900828]	0.18

Same assay, conditions: PanDDA 1-BDC value of the event; crystal soak, compound concentration 100 mM; per dataset

SMILES	1-BDC
Cc1ccc([C@@H]2C[C@@H](C)CCN2C(=O)c2ncnc3[nH]ccc23)o1 [ZINC000611664196]	0.05

Same assay, conditions: PanDDA event map background density correction; crystal soak, Compound_concentration 100 mM; PanDDA run dmso_34

SMILES	1-BDC
Nc1ncnc(N2CCC(Oc3ccncc3)C2)c1Cl (stereo not drawn) [ZINC000302059710]	0.13

Same assay, conditions: PanDDA event map, 1 minus background density correction; crystal soaking of Mac1

SMILES	1-BDC
Nc1ncnc2c1ncn2Cc1cccc(C(F)(F)F)c1 [ZINC000110510893]	0.35
Nc1ncnc(N2CCC(Oc3ccncc3)C2)c1Cl (stereo not drawn) [ZINC000302059710]	0.13
Nc1ncnc2c1ncn2Cc1ccc(Cl)cn1 [ZINC000559260078]	0.15
Cc1ccc([C@@H]2C[C@@H](C)CCN2C(=O)c2ncnc3[nH]ccc23)o1 [ZINC000611664196]	0.05
Nc1ncnc2c1ncn2Cc1cc(-c2ccco2)on1 [ZINC000681764827]	0.16
O=C(c1ncnc2[nH]ccc12)N1CC=CC12CCCCC2 [ZINC000827900828]	0.18

Same assay, conditions: crystal soak, Compound_concentration 100 mM, Echo dispense 40 nl; PanDDA run dmso_34

SMILES	PanDDA hit?
Nc1ncnc(N2CCC(Oc3ccncc3)C2)c1Cl (stereo not drawn) [ZINC000302059710]	TRUE

Same assay, conditions: crystal soak, compound concentration 100 mM; PanDDA run dmso_34; series docking_lead-like_1

SMILES	PanDDA hit?
Nc1ncnc2c1ncn2Cc1cccc(C(F)(F)F)c1 [ZINC000110510893]	TRUE
Nc1ncnc2c1ncn2Cc1ccc(Cl)cn1 [ZINC000559260078]	TRUE
Nc1ncnc2c1ncn2Cc1cc(-c2ccco2)on1 [ZINC000681764827]	TRUE
O=C(c1ncnc2[nH]ccc12)N1CC=CC12CCCCC2 [ZINC000827900828]	TRUE

Same assay, conditions: crystal soak, compound concentration 100 mM; per dataset

SMILES	PanDDA hit?
Cc1ccc([C@@H]2C[C@@H](C)CCN2C(=O)c2ncnc3[nH]ccc23)o1 [ZINC000611664196]	TRUE

Same assay, conditions: ligand modeled in crystal structure; crystal soak, Compound_concentration 100 mM; PanDDA run dmso_34

SMILES	Modeled?
Nc1ncnc(N2CCC(Oc3ccncc3)C2)c1Cl (stereo not drawn) [ZINC000302059710]	TRUE

Same assay, conditions: ligand modeled in the crystal structure; crystal soak 100 mM; PanDDA run dmso_34

SMILES	Modeled?
Nc1ncnc2c1ncn2Cc1cccc(C(F)(F)F)c1 [ZINC000110510893]	TRUE
Nc1ncnc2c1ncn2Cc1ccc(Cl)cn1 [ZINC000559260078]	TRUE
Nc1ncnc2c1ncn2Cc1cc(-c2ccco2)on1 [ZINC000681764827]	TRUE
O=C(c1ncnc2[nH]ccc12)N1CC=CC12CCCCC2 [ZINC000827900828]	TRUE

Same assay, conditions: ligand modeled in the crystal structure; crystal soak, compound concentration 100 mM; per dataset

SMILES	Modeled?
Cc1ccc([C@@H]2C[C@@H](C)CCN2C(=O)c2ncnc3[nH]ccc23)o1 [ZINC000611664196]	TRUE

Same assay, conditions: ligand occupancy after refinement (phenix.refine); crystal soaking of Mac1

SMILES	Refined occupancy
Nc1ncnc2c1ncn2Cc1cccc(C(F)(F)F)c1 [ZINC000110510893]	70
Nc1ncnc(N2CCC(Oc3ccncc3)C2)c1Cl (stereo not drawn) [ZINC000302059710]	26
Nc1ncnc2c1ncn2Cc1ccc(Cl)cn1 [ZINC000559260078]	30
Cc1ccc([C@@H]2C[C@@H](C)CCN2C(=O)c2ncnc3[nH]ccc23)o1 [ZINC000611664196]	10
Nc1ncnc2c1ncn2Cc1cc(-c2ccco2)on1 [ZINC000681764827]	50
O=C(c1ncnc2[nH]ccc12)N1CC=CC12CCCCC2 [ZINC000827900828]	36

Same assay, conditions: overall hit flag: binding in crystallographic soaking or the HTRF-based binding assay

SMILES	HIT*
Nc1ncnc2c1ncn2Cc1cccc(C(F)(F)F)c1 [ZINC000110510893]	Y
Nc1ncnc(N2CCC(Oc3ccncc3)C2)c1Cl (stereo not drawn) [ZINC000302059710]	Y
Nc1ncnc2c1ncn2Cc1ccc(Cl)cn1 [ZINC000559260078]	Y
Nc1ncnc2c1ncn2Cc1cc(-c2ccco2)on1 [ZINC000681764827]	Y
O=C(c1ncnc2[nH]ccc12)N1CC=CC12CCCCC2 [ZINC000827900828]	Y

Same assay, conditions: true hit = binding in crystallographic soaking or the HTRF-based binding assay

SMILES	HIT*
Cc1ccc([C@@H]2C[C@@H](C)CCN2C(=O)c2ncnc3[nH]ccc23)o1 [ZINC000611664196]	Y
